Assay results taken from ChEMBL document CHEMBL1125606, “Synthesis and binding of [125I2]philanthotoxin-343, [125I2]philanthotoxin-343-lysine, and [125I2]philanthotoxin-343-arginine to rat brain membranes” (J Med Chem, 1991).

Species: Rattus norvegicus
Assay: Percent control measured by evaluating the inhibition of 3 nM [125I]PhTX-343-lysine binding to glutamate receptors in rat cortical membranes
Type: cell membranes
Parameters: scale not given: the % may be the effect or the level left
Details: Membrane

SMILES	Activity
NCC(=O)O	109%
NCCCNCCCCNCCCN	14.4%
NC(CCCP(=O)(O)O)C(=O)O (stereo unspecified)	94%
C[C@]12N[C@H](Cc3ccccc31)c1ccccc12	92%
CNC(CCC(=O)O)C(=O)O (stereo unspecified)	96%
C=C(C)[C@H]1CN[C@H](C(=O)O)[C@H]1CC(=O)O	103%
c1ccc(C2(N3CCCCC3)CCCCC2)cc1	81%
N[C@@H](Cn1oc(=O)[nH]c1=O)C(=O)O	104%
CCCC(=O)N[C@@H](Cc1ccc(O)cc1)C(=O)NCCCCNCCCNCCCN	32.7%
O=[N+]([O-])c1cc2nc(O)c(O)nc2cc1[N+](=O)[O-]	102%
N[C@@H](CCC(=O)O)C(=O)O	99%
